For data set [1] the following is noted: prescribed for morning sickness during pregnancy; cited from earlier work.
The test system of another data set is beta-adrenergic. Particulars: L-form versus D-enantiomer; cited from earlier work.
Data set [2] is described as follows: Degradation of methylphenidate in presence of moisture or packaging materials (observation).

“Also recorded” adds a separate entry of the source.

For the molecule `O=C1CCC(N2C(=O)c3ccccc3C2=O)C(=O)N1` (single isomer, unassigned) [D-enantiomer of thalidomide, thalidomide], the “safety/effect of enantiomer in pregnancy” value in data set [1] was “safe and effective sedative”. Consider `O=C1CCC(N2C(=O)c3ccccc3C2=O)C(=O)N1` (single isomer, unassigned) [L-enantiomer of thalidomide, thalidomide], for which, in data set [1], the “safety/effect of enantiomer in pregnancy” value is reported as “potent teratogen”. On to `CC(C)NC[C@H](O)COc1cccc2ccccc12` [L-form of propranolol, propranolol], for which the “potency relative to the D-enantiomer” value with beta-adrenergic is 100 times. With `COC(=O)C(c1ccccc1)C1CCCCN1` (centres unmarked) [methylphenidate], in data set [2] (certain types of packaging materials used for transdermal systems), the “stability in the presence of packaging materials” value is “unstable”. For the same molecule, the “degradation in the presence of moisture” value in data set [2] (exposure to moisture) is on record as “form ritalinic acid by hydrolysis; also recorded: formation of the erythro-enantiomers”.

Source of the values: patent US6905016B2, “Packaging system for transdermal drug delivery systems” (Noven Pharmaceuticals, Inc., priority 2000, dated 2005).
